Data reported in patent publication US20030130287A1, “Piperidine and piperazine derivatives which function as 5-ht2a receptor antagonists” (priority 2000, published 2003).
Where a name gives a salt, the structure may show the parent alone.

Tests used:
5-HT2A receptors = target: T1, 5-HT2A receptors (Rattus norvegicus, UniProt P14842); assay: [3H]ketanserine displacement at 5-HT2A receptors (Example A1); format: binding; conditions: frontal rat cortex homogenate, 15 minutes at 37° C.
T1 construct: Frontal rat cortex is homogenized in ice-cold buffer; from tissue; host or cells: rat frontal cortex homogenate (membrane pellet)
T1 sequence (P14842 whole entry): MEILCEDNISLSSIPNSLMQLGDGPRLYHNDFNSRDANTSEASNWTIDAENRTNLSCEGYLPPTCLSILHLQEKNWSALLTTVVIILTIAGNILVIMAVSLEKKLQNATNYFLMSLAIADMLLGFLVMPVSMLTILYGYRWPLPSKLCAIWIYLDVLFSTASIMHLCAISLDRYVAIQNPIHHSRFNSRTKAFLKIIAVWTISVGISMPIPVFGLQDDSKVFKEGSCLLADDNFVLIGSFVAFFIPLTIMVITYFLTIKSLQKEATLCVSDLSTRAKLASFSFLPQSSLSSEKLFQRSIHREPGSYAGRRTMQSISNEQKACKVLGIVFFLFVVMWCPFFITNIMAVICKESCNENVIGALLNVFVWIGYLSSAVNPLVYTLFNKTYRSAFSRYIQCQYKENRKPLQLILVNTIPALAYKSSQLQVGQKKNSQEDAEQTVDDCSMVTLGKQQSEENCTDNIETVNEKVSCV
Experimental: For the in-vitro detection of affinity to 5-HT2A receptors, the following test (Example A1), for example, can be used. The 5-HT2A receptors are exposed both to [^3H]ketanserine (a substance which is known for its affinity to the receptor) and also to the test compound. The decrease in the affinity of [^3H]ketanserine to the receptor is an indication of the affinity of the test substance to the 5-HT2A receptor. The detection is carried out analogously to the description by J. E. Leysen et al., Molecular Pharmacology, 1982, 21: 301-314, or as also described, for example, in EP 0320983.
Preparation of a Suspension of 5-HT2A Receptors:
Frontal rat cortex is homogenized in ice-cold buffer. The homogenate is centrifuged for 10 minutes at 4° C. and 50,000 X. The pellet is re-suspended in 2.5 ml of ice-cold tris buffer, made up to 10 ml with additional buffer and centrifuged as described. The pellet is then re-suspended in buffer and diluted to give a homogenate comprising 60 mg of material/ml. 0.1 ml of the suspension, 100 μl of a 5 nM solution of [^3H]ketanserine and 100 μl of a solution of the test compound (concentration in the range from 10^−5 to 10^−10 mol per litre) are introduced into the incubation tubes and made up to 1 ml with buffer. The tubes are incubated for 15 minutes at 37° C. After the incubation has been terminated by dipping the tubes into an ice bath, the cooled suspension is filtered through a glass filter under reduced pressure. The filters are washed 3× with 5 ml of cold buffer and then transferred into scintillation tubes. The filters are analysed by liquid scintillation spectrometry in 8 ml of Triton-X scintillator liquid.

Fc1ccc(CCN2CCC(Sc3cccc(Cl)n3)CC2)cc1 (as salt: hydrochloride) [Example 2, 2-chloro-6-{1-[2-(4-fluorophenyl)ethyl]piperidin-4-ylsulfanyl}pyridine]
melting point: 237 to 240 °C

[O-][S+](c1cccc(Cl)n1)C1CCN(CCc2ccc(F)cc2)CC1 (stereo not shown) (as salt: hydrochloride) [Example 3, 2-chloro-6-{1-[2-(4-fluorophenyl)ethyl]piperidine-4-sulfinyl}pyridine]
melting point: 208 °C

O=S(=O)(c1cccc2cccnc12)N1CCN(CCc2ccc(F)cc2)CC1 (as salt: hydrochloride) [compound 1, 4-(8-Quinolinesulfonyl)-1-[2-(4-fluorophenyl)ethyl]piperazine]
melting point: 141 °C

O=S(=O)(c1cccc2cccnc12)N1CCN(CCc2ccc(F)cc2)CC1 [compound 1, 4-(8-Quinolinesulfonyl)-1-[2-(4-fluorophenyl)ethyl]piperazine]
IC50 (5-HT2A receptors): 1.3 nM

O=S(=O)(c1cccc2ccccc12)N1CCN(CCc2ccc(F)cc2)CC1 [compound 2, 4-(1-Naphthylsulfonyl)-1-[2-(4-fluorophenyl)ethyl]piperazine]
IC50 (5-HT2A receptors): 8.1 nM

O=S(=O)(c1ccc(F)cc1)N1CCN(CCc2ccc(F)cc2)CC1 [compound 3, 4-(4-Fluorophenylsulfonyl)-1-[2-(4-fluorophenyl)ethyl]piperazine]
IC50 (5-HT2A receptors): 25 nM

CC(=O)Nc1cccc2c(S(=O)(=O)N3CCN(CCc4ccc(F)cc4)CC3)cccc12 [compound 4, 4-(5-Acetamidonaphth-1-yl-sulfonyl)-1-[2-(4-fluorophenyl)ethyl]piperazine]
IC50 (5-HT2A receptors): 7.4 nM

O=S(=O)(c1cccc2nonc12)N1CCN(CCc2ccc(F)cc2)CC1 [compound 5, 4-(2,1,3-Benzoxadiazol-4-ylsulfonyl)-1-[2-(4-fluorophenyl)ethyl]piperazine]
IC50 (5-HT2A receptors): 44 nM

O=[N+]([O-])c1ccccc1S(=O)(=O)N1CCN(CCc2ccc(F)cc2)CC1 [compound 6, 4-(2-Nitrophenylsulfonyl)-1-[2-(4-fluorophenyl)ethyl]piperazine]
IC50 (5-HT2A receptors): 9.2 nM

O=S(=O)(c1ccc2c(c1)CCN2)N1CCN(CCc2ccc(F)cc2)CC1 [compound 7, 4-(2,3-Dihydro-1H-indole-5-sulfonyl)-1-[2-(4-fluorophenyl)ethyl]piperazine]
IC50 (5-HT2A receptors): 13 nM

N#Cc1c[nH]c2ccc(S(=O)(=O)N3CCN(CCc4ccc(F)cc4)CC3)cc12 [compound 8, 4-(3-Cyano-1H-indole-5-sulfonyl)-1-[2-(4-fluorophenyl)ethyl]piperazine]
IC50 (5-HT2A receptors): 1.6 nM

O=S(=O)(c1ccc(F)cc1)C1CCN(CCc2ccc(F)cc2)CC1 [compound 9, 4-(4-Fluorophenylsulfonyl)-1-(2-(4-fluorophenyl)ethyl]piperidine]
IC50 (5-HT2A receptors): 2.1 nM

O=S(=O)(c1cccc(Cl)n1)C1CCN(CCc2ccc(F)cc2)CC1 [compound 10, 2-Chloro-6-{1-[2-(4-fluorophenyl)ethyl]piperidin-4-sulfonyl}pyridine]
IC50 (5-HT2A receptors): 0.6 nM
